# Laboratory results: patent US12594339B2, “Lipid prodrugs of JAK inhibitors and uses thereof” (Seaport Therapeutics, Inc., priority 2019, dated 2026)
# Assay: Lymphatic transport assay in mesenteric lymph-duct cannulated rats
# Assay type: in vivo, rat
# Settings: marked with asterisk: analytical procedure without a hydrolysis step (intact lipid prodrug), intraduodenal infusion, anaesthetised mesenteric lymph-duct cannulated rats
# Method: In order to assess the lymphatic transport of disclosed lipid prodrugs in rats, the mesenteric lymph ducts of the rats used in this study were cannulated to allow continual collection of mesenteric lymph. Lipid formulations containing the compound of interest were then administered to the animals, lymph was collected, and drug concentrations in the lymph samples were quantified.
# Lipid-based formulations of the compounds of the invention or control compounds were prepared as previously described (Trevaskis, N. L. et al., Pharmaceutical Research, 2005, 22(11), 1863-1870, WO 2016/023082, and WO 2017/041139, hereby incorporated by reference).
# In brief, either 1 or 2 mg of test prodrug, 40 mg oleic acid and 25 mg Tween 80 were mixed in a glass vial and incubated at 37° C. for 12-18 h to equilibrate. An aqueous phase consisting of 5.6 ml phosphate buffered saline (PBS, pH 7.4) was subsequently added to the lipid phase (tofacitinib was dissolved in PBS for the preparation of tofacitinib-containing formulations) and the formulation emulsified by ultrasonication with a Misonix XL 2020 ultrasonic processor (Misonix, Farmingdale, NY, USA) equipped with a 3.2-mm microprobe tip running at 30% of the maximal amplitude of 240 μm and a frequency of 20 kHz for 2 min at room temperature. Doses for administering to more than one animal can be prepared in one batch by suitably increasing the quantities given above. Drug/prodrug concentrations in all formulations were verified using HPLC-MS.
# Male Sprague-Dawley (SD) rats were selected for the lymphatic transport studies. Rats (typically 240-320 g) were maintained on a standard diet and fasted overnight with free access to water prior to experiments.
# Anesthetized rats were placed on a heated pad at 37° C. and cannulas inserted into the duodenum (for formulation administration and rehydration), mesenteric lymph duct (for lymph collection), and carotid artery (in cases where blood collection was conducted). Post-surgery, rats were re-hydrated for 0.5 h via intraduodenal infusion of normal saline at 2.8 mL/h. The lipid formulations were infused into the duodenum at 2.8 mL/h for 2 h after which, normal saline was infused at 2.8 mL/h for the remainder of the experiment. Lymph was continuously collected for up to 8 h into pre-weighed Eppendorf tubes containing 10 μL of 1,000 IU/mL heparin. The collection tubes were changed hourly and lymph flow was measured gravimetrically. Aliquots of hourly lymph samples were stored at −20° C. prior to assay.
# For most compounds, drug concentration in lymph is expressed as total drug and includes free drug and drug associated with different glycerides. Lymph samples were first treated with a lipase or other appropriate conditions to liberate free active agent prior to measurement of active agent levels in the lymph. Treatment with a lipase or other hydrolysis conditions liberates free active agent from any corresponding re-esterified glycerides. Porcine pancreatic lipase is appropriate for this purpose. Alternatively, hydrolysis with 0.5 M NaOH may be used.
# For certain compounds, drug concentration was measured for the intact lipid prodrug specifically, without exposing the lymph samples to hydrolysis conditions.
# Transport of compounds into lymph during each hourly collection period was calculated from the product of the volume of lymph collected and the measured concentrations in lymph. For fluorescent or fluorescently-labelled compounds, the concentrations of total compound may be measured by fluorescence spectroscopy without hydrolysis.
# Table 5 summarizes lymphatic transport of total tofacitinib related compound (% of administered dose) following intraduodenal infusion to anaesthetised, mesenteric lymph-duct cannulated rats. Data are presented as mean±SD when n≥3 or mean± range when n=2. […]
row,Structure (SMILES),Cumulative lymphatic transport % dose
1,"CCCCCCCCCCCCCCCC(=O)OCC(COC(=O)CCCCCCCCCCCCCCC)OC(=O)CC(C)CCCCCCC(=O)n1ccc2c(N(C)[C@H]3CN(C(=O)CC#N)CC[C@H]3C)ncnc21 (stereo partly drawn) [I-9, 2-((10-(4-(((3R,4R)-1-(2-cyanoacetyl)-4-methylpiperidin-3-yl)(methyl)amino)-7H-pyrrolo[2,3-d]pyrimidin-7-yl)-3-methyl-10-oxodecanoyl)oxy)propane-1,3-diyl dipalmitate]",B* (lymphatic transport assay result between 1% and 10% (1%-10%))
2,"CCCCCCCCCCCCCCCC(=O)OCC(COC(=O)CCCCCCCCCCCCCCC)OC(=O)CC(C)CCCCCCCCCCC(C)C(=O)n1ccc2c(N(C)[C@H]3CN(C(=O)CC#N)CC[C@H]3C)ncnc21 (stereo partly drawn) [I-39, 2-((15-(4-(((3R,4R)-1-(2-cyanoacetyl)-4-methylpiperidin-3-yl)(methyl)amino)-7H-pyrrolo[2,3-d]pyrimidin-7-yl)-3,14-dimethyl-15-oxopentadecanoyl)oxy)propane-1,3-diyl dipalmitate]",A* (lymphatic transport assay result of greater than 10% (>10%))

# Same assay, conditions: numeric value for parent drug, intraduodenal infusion, anaesthetised mesenteric lymph-duct cannulated rats
row,Cumulative lymphatic transport % dose,Structure (SMILES)
1,<0.3 % dose,"C[C@@H]1CCN(C(=O)CC#N)C[C@@H]1N(C)c1ncnc2[nH]ccc12 [Tofacitinib, tofacitinib, reference compound]"

# Same assay, conditions: numeric value for parent drug, intraduodenal infusion, anaesthetised mesenteric lymph-duct cannulated rats; listed as tofacitinib
row,Cumulative lymphatic transport % dose,Structure (SMILES)
1,< 0.3 % dose,"C[C@@H]1CCN(C(=O)CC#N)C[C@@H]1N(C)c1ncnc2[nH]ccc12 [Tofacitinib, tofacitinib, reference compound]"

# Same assay, conditions: total tofacitinib related compound (lymph hydrolysed before assay), intraduodenal infusion, anaesthetised mesenteric lymph-duct cannulated rats, lymph collected up to 8 h
row,Structure (SMILES),Cumulative lymphatic transport % dose
1,CCCCCCCCCCCCCCCC(=O)OCC(COC(=O)CCCCCCCCCCCCCCC)OC(=O)CC(C)CCCCCC(=O)n1ccc2c(N(C)[C@H]3CN(C(=O)CC#N)CC[C@H]3C)ncnc21 (stereo partly drawn) [I-7],B (lymphatic transport assay result between 1% and 10% (1%-10%))
2,"CCCCCCCCCCCCCCCC(=O)OCC(COC(=O)CCCCCCCCCCCCCCC)OC(=O)CC(C)CCCCCCCCCCCC(=O)n1ccc2c(N(C)[C@H]3CN(C(=O)CC#N)CC[C@H]3C)ncnc21 (stereo partly drawn) [I-10, 2-((15-(4-(((3R,4R)-1-(2-cyanoacetyl)-4-methylpiperidin-3-yl)(methyl)amino)-7H-pyrrolo[2,3-d]pyrimidin-7-yl)-3-methyl-15-oxopentadecanoyl)oxy)propane-1,3-diyl dipalmitate]",B (lymphatic transport assay result between 1% and 10% (1%-10%))
3,"CCCCCCCCCCCCCCCC(=O)OCC(COC(=O)CCCCCCCCCCCCCCC)OC(=O)CC(C)CCCCCCC(C)CC(=O)n1ccc2c(N(C)[C@H]3CN(C(=O)CC#N)CC[C@H]3C)ncnc21 (stereo partly drawn) [I-13, 2-((12-(4-(((3R,4R)-1-(2-cyanoacetyl)-4-methylpiperidin-3-yl)(methyl)amino)-7H-pyrrolo[2,3-d]pyrimidin-7-yl)-3,10-dimethyl-12-oxododecanoyl)oxy)propane-1,3-diyl dipalmitate]",A (lymphatic transport assay result of greater than 10% (>10%))
4,"CCCCCCCCCCCCCCCC(=O)OCC(COC(=O)CCCCCCCCCCCCCCC)OC(=O)CC(C)CCCCCCC(=O)Oc1c(C)cc(COC(=O)n2ccc3c(N(C)[C@H]4CN(C(=O)CC#N)CC[C@H]4C)ncnc32)cc1C (stereo partly drawn) [I-14, 10-(1,3-bis(palmitoyloxy)propan-2-yl) 1-(4-(((4-(((3R,4R)-1-(2-cyanoacetyl)-4-methylpiperidin-3-yl)(methyl)amino)-7H-pyrrolo[2,3-d]pyrimidine-7-carbonyl)oxy)methyl)-2,6-dimethylphenyl) 8-methyldecanedioate]",B (lymphatic transport assay result between 1% and 10% (1%-10%))
5,"CCCCCCCCCCCCCCCC(=O)OCC(COC(=O)CCCCCCCCCCCCCCC)OC(=O)CC(C)CCCCCCCC(C)C(=O)Oc1c(C)cc(COC(=O)n2ccc3c(N(C)[C@H]4CN(C(=O)CC#N)CC[C@H]4C)ncnc32)cc1C (stereo partly drawn) [I-15, 12-(1,3-bis(palmitoyloxy)propan-2-yl) 1-(4-(((4-(((3R,4R)-1-(2-cyanoacetyl)-4-methylpiperidin-3-yl)(methyl)amino)-7H-pyrrolo[2,3-d]pyrimidine-7-carbonyl)oxy)methyl)-2,6-dimethylphenyl) 2,10-dimethyldodecanedioate]",A (lymphatic transport assay result of greater than 10% (>10%))
6,"CCCCCCCCCCCCCCCC(=O)OCC(COC(=O)CCCCCCCCCCCCCCC)OC(=O)CC(C)CCCCCCCCC(=O)Oc1c(C)cc(COC(=O)n2ccc3c(N(C)[C@H]4CN(C(=O)CC#N)CC[C@H]4C)ncnc32)cc1C (stereo partly drawn) [I-16, 1-(1,3-bis(palmitoyloxy)propan-2-yl) 12-(4-(((4-(((3R,4R)-1-(2-cyanoacetyl)-4-methylpiperidin-3-yl)(methyl)amino)-7H-pyrrolo[2,3-d]pyrimidine-7-carbonyl)oxy)methyl)-2,6-dimethylphenyl) 3-methyldodecanedioate]",A (lymphatic transport assay result of greater than 10% (>10%))
7,"CCCCCCCC/C=C\CCCCCCCC(=O)OCC(COC(=O)CCCCCCC/C=C\CCCCCCCC)OC(=O)CC(C)CCCCCCCCCC(C)CC(=O)n1ccc2c(N(C)[C@H]3CN(C(=O)CC#N)CC[C@H]3C)ncnc21 (stereo partly drawn) [I-33, 2-((15-(4-(((3R,4R)-1-(2-cyanoacetyl)-4-methylpiperidin-3-yl)(methyl)amino)-7H-pyrrolo[2,3-d]pyrimidin-7-yl)-3,13-dimethyl-15-oxopentadecanoyl)oxy)propane-1,3-diyl dioleate]",A (lymphatic transport assay result of greater than 10% (>10%))
8,"CCCCCCCCCCCCCCCC(=O)OCC(COC(=O)CCCCCCCCCCCCCCC)OC(=O)CC(C)CC(=O)OC(C)OC(=O)n1ccc2c(N(C)[C@H]3CN(C(=O)CC#N)CC[C@H]3C)ncnc21 (stereo partly drawn) [I-40, 1-(1,3-bis(palmitoyloxy)propan-2-yl) 5-(1-((4-(((3R,4R)-1-(2-cyanoacetyl)-4-methylpiperidin-3-yl)(methyl)amino)-7H-pyrrolo[2,3-d]pyrimidine-7-carbonyl)oxy)ethyl) 3-methylpentanedioate]",D (lymphatic transport assay result of less than 0.05% (<0.05%))
